Laboratory results published in patent US20120082658A1, “Methods for the Treatment of Allergic Diseases” (VentiRx Pharmaceuticals, Inc., priority 2010, published 2012).
Like-named read-outs stand apart in the source and are kept apart here.

Test system: human peripheral blood mononuclear cells (PBMCs)
Assay: Cytokine production in isolated human PBMCs
Assay type: cell-based
Conditions: for EC50: Homo sapiens, PBMC
Description: Preclinical studies were performed with VTX-378, the active pharmaceutical ingredient in VTX-1463. The specificity of VTX-378 for human TLR8 relative to other TLRs was assessed in transfected Human Embryonic Kidney 293 (HEK293) cells engineered to express individual TLRs (2-9) via transfection, and assessed using an NF-κB driven reporter system. […] The pharmacologic effects of VTX-378 were characterized in vitro using isolated human peripheral blood mononuclear cells (PBMCs).

With CC(C)Cn1cnc2c(N)nc3ccccc3c21 [Imiquimod, imiquimod, reference compound] the EC50 (analyte IL-10, read-out: EC50, IL-10 production) was 17 µM, the EC50 (analyte IL-12p40, read-out: EC50, IL-12p40 production) was 0.27 µM and the “Mean Mediator Level ± SEM, IL-10” value (Imiquimod 25 uM) was 59 ± 24 pg/mL. For the same molecule, the “Mean Mediator Level ± SEM, IL-12p40” value (Imiquimod 25 uM) was 10.2 ± 3.5 pg/mL and the “Mean Mediator Level ± SEM, IL-12p70” value (Imiquimod 25 uM) was 0.6 ± 0.6 pg/mL.
